# Experiments:
# Human Oct 3 = biological target: T1, Human Oct 3 (Homo sapiens, UniProt O75751); test: MPP uptake inhibition (transport competition) assay in CHO cells over-expressing a human Oct transporter; assay type: cell-based; conditions: 100 μM aminosterol, radiolabelled MPP 0.01 μM, 1-second exposure
# T1 sequence (O75751 1-556): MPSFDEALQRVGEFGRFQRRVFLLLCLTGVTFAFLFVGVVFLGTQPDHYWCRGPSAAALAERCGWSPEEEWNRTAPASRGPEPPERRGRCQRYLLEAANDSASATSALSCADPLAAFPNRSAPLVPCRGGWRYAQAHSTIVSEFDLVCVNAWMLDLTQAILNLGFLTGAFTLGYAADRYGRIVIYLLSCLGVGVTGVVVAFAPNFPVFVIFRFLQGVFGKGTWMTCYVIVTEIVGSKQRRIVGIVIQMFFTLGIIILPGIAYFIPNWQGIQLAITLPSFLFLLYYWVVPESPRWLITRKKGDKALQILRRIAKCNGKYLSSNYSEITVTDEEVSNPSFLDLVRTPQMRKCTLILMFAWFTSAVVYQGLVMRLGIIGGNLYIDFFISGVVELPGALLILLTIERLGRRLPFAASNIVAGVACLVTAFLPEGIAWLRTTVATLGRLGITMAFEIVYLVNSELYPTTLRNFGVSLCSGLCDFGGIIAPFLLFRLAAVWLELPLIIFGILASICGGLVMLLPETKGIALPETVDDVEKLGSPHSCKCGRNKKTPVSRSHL
# Protocol: This example determines whether squalamine is a substrate for the organic cation transporter (Oct). This determination employed a standard transport competition assay, described in the literature (Lips, Volk et al. 2005).
# Chinese hamster ovary cells, previously engineered to over-express a specific human Oct transporter were used in the assay. In this example, the effect of a specific concentration of an amino sterol is determined on the intracellular uptake of radiolabelled 1-methyl-4-phenylpyridine (MPP) (at 0.01 μM), measured after a 1-second exposure. […] IC50 refers to the concentration of squalamine or 1436 required to inhibit MPP uptake by 50%. Table 1 below describes the affinity of squalamine and Amino sterol 1436 for human organic cation transporters (Human Oct 1, Human Oct 2, and Human Oct 3) based upon the MPP uptake inhibition assay.
# HUVECs = test: Thrombin induced stress fiber formation in endothelial cells; assay type: cell-based, human; conditions: aminosterol 20 μM, thrombin 20 ng/ml, 2 hours
# Protocol: The basic methods have been published (Williams, […] et al. 2001). HUVECs were grown on fibronectin-covered coverslips in EGM medium. […] Following a rinse, the cells were exposed to a 1:400 dilution of an FITC-goat antimurine antibody and 250 ng/ml TRITC phalloidin. The stained coverslips were visualized by fluorescence microscopy.
# [1] = tested on: Eastern Equine Encephalitis Virus; assay type: in vivo
# Dengue virus = test: Dengue infection of HMEC-1 cells, immunohistochemical detection of viral E protein (Example 11); assay type: cell-based, human
# Protocol: Cells were grown on uncoated glass cover-slips following a published protocol (Zamudio-Meza, Castillo-Alvarez et al. 2009). The cells were pretreated with squalamine for 2 hr at 37° C. prior to viral exposure; virus (multiplicity of infection of 3) remained in contact with cells for 30 minutes at 4° C., followed by 90 minutes at 37° C. The medium was then replaced with fresh medium lacking virus and squalamine and maintained at 37° C. for 48 hrs. Cells were fixed and processed for immunohistochemical detection of viral E protein. Viral E protein expression was used to monitor the early stages of infection.
# human Hepatitis B virus = test: Hepatitis B virus replication in primary human hepatocytes, PCR (Example 12); assay type: cell-based
# Protocol: Primary human hepatocytes were established in a 96 well microtiter plate. Squalamine was then added at concentrations of 2, 6 or 20 μg/ml followed by an inoculum of Hep B virus, and then in culture for 16 hours, after which fresh medium was introduced, and the cells maintained in culture for 14 days. In a second experiment, squalamine at 6 or 20 μg/ml was added to the cells at 24 hours post inoculation for a 16 hour exposure, followed by removal of medium, replacement with fresh medium, and continued culture for 14 days. Viral growth was measured by PCR using viral specific primers and normalized to the total RNA extracted from each corresponding well.
smiles,measurement,setting,value
"CC(C)[C@@H](CC[C@@H](C)[C@H]1CC[C@H]2[C@@H]3[C@H](O)C[C@H]4C[C@@H](NCCCNCCCCN)CC[C@]4(C)[C@H]3CC[C@]12C)OS(=O)(=O)O [Squalamine, squalamine]",% Inhibition of MPP uptake caused by 100 μM,Human Oct 3,60%
same,Disruption of thrombin induced stress fiber formation,HUVECs,Yes
same,Disruption of thrombin induced stress fiber formation,HUVECs; listed as squalamine,disrupt thrombin induced stress fiber formation
same,Efficacy in mice,[1],ineffective
same,Inhibition of viral infection,Dengue virus; 46 ug/ml,about 80%
same,Inhibition of viral infection,Dengue virus; 60 μg/ml and higher,~100%
same,Inhibition of viral infection,Dengue virus; 62 ug/ml,100%
same,"Cell viability (morphology, phase contrast)",Dengue virus; HMEC-1 cells at the effective squalamine concentrations,not diminished
same,Inhibition of viral infection,Dengue virus; about 40 μg/ml,80%
same,Inhibition of viral infection,Dengue virus; concentrations above 40 ug/ml,almost completely inhibited
same,Inhibition of viral production,"human Hepatitis B virus; 2 μg/ml, added at the outset of infection",14%
same,Inhibition of viral production,"human Hepatitis B virus; 6 μg/ml, added at 24 hours",30%
same,Inhibition of viral production,"human Hepatitis B virus; 6 μg/ml, added at the onset of infection",54%
same,Inhibition of viral production,"human Hepatitis B virus; 20 μg/ml, added at 24 hours",64%
same,Inhibition of viral production,"human Hepatitis B virus; 20 μg/ml, added during initial stages of infection",83%

# From patent US20200000825A1, “METHODS AND COMPOSITIONS FOR TREATING AND PREVENTING VIRAL INFECTIONS” (ENTERIN LABORATORIES, INC., priority 2009, published 2020)
